Laboratory results published in patent publication US12251364B2, “Treating non-alcoholic steatohepatitis with cck inhibitors” (priority 2018, dated 2025).
“Also recorded” adds a separate entry of the source.

Legend:
[1] = tested on: mice on CDE diet with established NASH; assay: Reversal (recovery) study: established NASH after 12 weeks of CDE diet, then proglumide for 6 weeks; type: in vivo, mouse (female C57BL/6)
Description: All mouse studies were performed in an ethical fashion and approved by the Institutional Animal Care and Use Committee, protocol #2016-1193 for animal research by Georgetown University. Female C57BL/6 mice (body weight of >20 g) were obtained from Charles River Laboratory (Germantown, MD). Mice were housed with five per cage with filter-top cages and housing light cycled q12 hrs; on-off. […] The first group received a modified Choline Deficient Diet with 75% Ethionine supplemented diet (CDE) as previously described by […] et al. “A modified choline-deficient, ethionine-supplemented diet reduces morbidity and retains a liver progenitor cell response in mice,” Dis Model Mech 8:1635-1641 (2015). […] The control mice received the same diet with choline. Both diets contained casein as the major source of protein and lard (saturated fat) as the primary source of fat. The diet composition is shown in Table 1 and is very similar to the Western diet (Roberts et al. “Western diet-induced hepatic steatosis and alterations in the liver transcriptome in adult Brown-Norway rats,” BMC Gastroenterol. 15:151 (2015)) where the diet consists of a high fat and high sugar and is often used in experimental animal diets to induce NAFLD. The food intake was measured by weighing food consumed to assure mice were eating equal amounts of food in each group, and animals ate ad libitum. Some mice on both diets were treated with the CCK receptor antagonist proglumide (Tocris Bioscience, Bristol, UK) at a concentration of 0.1 mg/ml and the estimated amount ingested per mouse was 30 mg/kg/d that was previously shown to block the CCK receptor (Smith et al. “Cholecystokinin receptor antagonist halts progression of pancreatic cancer precursor lesions and fibrosis in mice,” Pancreas 43:1050-1059 (2014)). Another cohort received untreated drinking water. The reversal study, took mice that had been on the CDE diet and untreated water (CDE/Reg) for 12 weeks (a time determined to result in the mice having NASH histologically and biochemical hepatitis). Mice were randomly allocated to one of two groups at 12 weeks. The first group (N=15) continued on the CDE diet and untreated water and the second group (N=15) also continued on the CDE diet but then received proglumide in the drinking water at the same concentration as the prevention study (0.1 mg/ml). The purpose of the reversal study was to see if proglumide could reverse any of the histologic and biochemical abnormalities of NASH from the 12-week CDE/regular water diet. The other group continued on the CDE diet with untreated drinking water. The animals in each group were weighed weekly. At the termination of the experiment the animal body weight and liver weight were recorded. Subgroups of mice were ethically euthanized after CO2 asphyxiation and cervical dislocation at one of 4 different time points: weeks 4, 8, 12, or 18. Blood was collected by pericardiac puncture and centrifuged. Serum was analyzed by VRL Laboratories (Gaithersburg, MD). The following liver tests were evaluated and the normal range for mouse is shown: Alkaline phosphatase (35-275 u/L); Alanine aminotransferase, ALT (17-129 u/L); Aspartate aminotransferase, AST (46-392 u/L); and total bilirubin (0-0.9 mg/dL). The liver tissues were fixed in 4% paraformaldehyde, paraffin embedded, and 8 μm sections were cut. Mounted sections were stained with Hematoxylin & Eosin or Masson's trichrome. A Liver pathologist blinded to the treatments and time period scored tissues for inflammation, fibrosis, steatosis, and whether there was evidence of dysplastic nodules or cancer (Table 2). Histology was scored for grade of inflammation (0-3), fibrosis (0-4), steatosis (0-3), balloon degeneration (0-2) and dysplasia or cancer (0-2). For analysis, a NASH score was defined as the combination of the steatosis and the balloon degeneration score. […]

[2] = tested on: mice on 75%-CDE diet (NASH, fibrosis and HCC); assay: Prevention study: CDE diet-induced NASH in mice, proglumide in drinking water from start of diet; type: in vivo, mouse (female C57BL/6)
Description: All mouse studies were performed in an ethical fashion and approved by the Institutional Animal Care and Use Committee, protocol #2016-1193 for animal research by Georgetown University. Female C57BL/6 mice (body weight of >20 g) were obtained from Charles River Laboratory (Germantown, MD). Mice were housed with five per cage with filter-top cages and housing light cycled q12 hrs; on-off. […] The first group received a modified Choline Deficient Diet with 75% Ethionine supplemented diet (CDE) as previously described by […] et al. “A modified choline-deficient, ethionine-supplemented diet reduces morbidity and retains a liver progenitor cell response in mice,” Dis Model Mech 8:1635-1641 (2015). […] The control mice received the same diet with choline. Both diets contained casein as the major source of protein and lard (saturated fat) as the primary source of fat. The diet composition is shown in Table 1 and is very similar to the Western diet (Roberts et al. “Western diet-induced hepatic steatosis and alterations in the liver transcriptome in adult Brown-Norway rats,” BMC Gastroenterol. 15:151 (2015)) where the diet consists of a high fat and high sugar and is often used in experimental animal diets to induce NAFLD. The food intake was measured by weighing food consumed to assure mice were eating equal amounts of food in each group, and animals ate ad libitum. Some mice on both diets were treated with the CCK receptor antagonist proglumide (Tocris Bioscience, Bristol, UK) at a concentration of 0.1 mg/ml and the estimated amount ingested per mouse was 30 mg/kg/d that was previously shown to block the CCK receptor (Smith et al. “Cholecystokinin receptor antagonist halts progression of pancreatic cancer precursor lesions and fibrosis in mice,” Pancreas 43:1050-1059 (2014)). Another cohort received untreated drinking water. The study design included two different parts: a “prevention study” and a “reversal study” (FIG. 1). In the prevention study, the goal was to determine if treatment with proglumide could prevent NASH, fibrosis and HCC if started at the same time of the initiation of the high fat CDE diet. Initially mice were randomized into one of four treatment group (FIG. 1). Sixty-five mice received the 75%-CDE diet and untreated drinking water (CDE/Reg). Of these (N=5 each) mice were ethically euthanized and livers dissected and analyzed histologically to assess for evidence of NASH at weeks 4 and 8. When NASH was becoming apparent, mice were continued on this diet and some (N=10) were euthanized at week 12 and some (N=25) were euthanized at week 18. Five mice died in the CDE/Reg diet in the first 12 weeks. A parallel cohort of mice (N=25) were also given the CDE diet but their drinking water was treated with the CCK-receptor antagonist proglumide. In this cohort, some (N=10) were euthanized, blood drawn, and liver examined histologically at week 12. The remainder (N=15) were euthanized and examined at week 18 to compare to the CDE/Reg group. Twenty mice each were treated with the control diet, and half (N=10) in this group received proglumide water and half received untreated drinking water. Half of the control mice were euthanized at the first time point of 12 weeks and the remainder was euthanized at the end of the experiment at 18 weeks. Subgroups of mice were ethically euthanized after CO2 asphyxiation and cervical dislocation at one of 4 different time points: weeks 4, 8, 12, or 18. Blood was collected by pericardiac puncture and centrifuged. Serum was analyzed by VRL Laboratories (Gaithersburg, MD). The following liver tests were evaluated and the normal range for mouse is shown: Alkaline phosphatase (35-275 u/L); Alanine aminotransferase, ALT (17-129 u/L); Aspartate aminotransferase, AST (46-392 u/L); and total bilirubin (0-0.9 mg/dL). The liver tissues were fixed in 4% paraformaldehyde, paraffin embedded, and 8 μm sections were cut. Mounted sections were stained with Hematoxylin & Eosin or Masson's trichrome. […]

[3] = tested on: mice on control high fat diet; assay: Control high fat diet with choline, proglumide-treated versus untreated water; type: in vivo, mouse (female C57BL/6)
Description: All mouse studies were performed in an ethical fashion and approved by the Institutional Animal Care and Use Committee, protocol #2016-1193 for animal research by Georgetown University. Female C57BL/6 mice (body weight of >20 g) were obtained from Charles River Laboratory (Germantown, MD). Mice were housed with five per cage with filter-top cages and housing light cycled q12 hrs; on-off.
Mice were fed one of two custom high fat diets from MP Biomedicals, LLC (Solon, Ohio). The first group received a modified Choline Deficient Diet with 75% Ethionine supplemented diet (CDE) as previously described by Passman et al. “A modified choline-deficient, ethionine-supplemented diet reduces morbidity and retains a liver progenitor cell response in mice,” Dis Model Mech 8:1635-1641 (2015). […] The control mice received the same diet with choline. Both diets contained casein as the major source of protein and lard (saturated fat) as the primary source of fat. […] The food intake was measured by weighing food consumed to assure mice were eating equal amounts of food in each group, and animals ate ad libitum. […]
Subgroups of mice were ethically euthanized after CO2 asphyxiation and cervical dislocation at one of 4 different time points: weeks 4, 8, 12, or 18. […] Serum was analyzed by VRL Laboratories (Gaithersburg, MD). The following liver tests were evaluated and the normal range for mouse is shown: Alkaline phosphatase (35-275 u/L); Alanine aminotransferase, ALT (17-129 u/L); Aspartate aminotransferase, AST (46-392 u/L); and total bilirubin (0-0.9 mg/dL).
The liver tissues were fixed in 4% paraformaldehyde, paraffin embedded, and 8 μm sections were cut. […] A Liver pathologist blinded to the treatments and time period scored tissues for inflammation, fibrosis, steatosis, and whether there was evidence of dysplastic nodules or cancer (Table 2). Histology was scored for grade of inflammation (0-3), fibrosis (0-4), steatosis (0-3), balloon degeneration (0-2) and dysplasia or cancer (0-2). […]

[4] = PIVENS trial; cited from earlier work
[5] = CDE/Reg 12 weeks then proglumide water 6 weeks
[6] = CDE/Prog vs CDE/Reg, weeks 12 and 18

With CCCN(CCC)C(=O)C(CCC(=O)O)NC(=O)c1ccccc1 (centres unmarked) [proglumide] the “serum AST levels” value ([1]; CDE/Reg 12 weeks then CDE/Prog 6 weeks (Recovery)) was “significantly decreased”, the “HCC or dysplastic nodules” value ([1]; CDE/Reg 12 weeks then CDE/proglumide 6 weeks, N=15, week 18) was “no evidence of HCC or dysplastic nodules and none” and the alkaline phosphatase levels [1, 5] was “not prevented or reversed”. The serum total bilirubin [1, 5] was “returned to the normal range; also recorded: decreased bilirubin”, the ALT serum levels ([1]; Recovery vs CDE/Reg for 18 full weeks) was “this difference was not significant” and the histologic fibrosis score ([1]; Recovery, week 18) was “able to decrease; also recorded: improved”. The histologic inflammation score ([1]; Recovery, week 18) was “able to decrease; also recorded: improved”, the “liver blood tests and histology” value ([1]; proglumide for 6 weeks while continuing the CDE diet) was “improved significantly” and the “serum AST levels” value ([2]; CDE diet + proglumide 0.1 mg/ml in drinking water from day 0 (Prevention), vs CDE/Reg) was “restored to near normal; also recorded: at or near normal levels”. For the same molecule, the “ALT serum levels, week 12” value ([2]; CDE diet + proglumide water from day 0, week 12) was “did not prevent elevation”, the “ALT serum levels, week 18” value ([2]; CDE diet + proglumide water from day 0, week 18) was “did decrease ALT values; also recorded: able to prevent this increase only after 18 weeks” and the serum total bilirubin ([2]; CDE diet + proglumide water from day 0, weeks 12 and 18, vs CDE/Reg) was “completely prevented; also recorded: prevented bilirubin level increases”. The “alkaline phosphatase blood levels” value ([2]; CDE diet + proglumide water, vs CDE/Reg) was “not prevented or reversed; also recorded: did not decrease alkaline phosphatase”, the “histologic features/changes of NASH” value [2, 6] was “significantly decreased; also recorded: prevented” and the histologic fibrosis score [2, 6] was “prevented; also recorded: decreased fibrosis”. The histologic inflammation score [2, 6] was “prevented; also recorded: marked decrease in inflammation; also recorded: decreased inflammation”, the histologic steatosis score [2, 6] was “prevented; also recorded: decreased steatosis” and the balloon degeneration ([2]; CDE/Prog, week 12 liver histology) was “minimal or no balloon degeneration”. For the same molecule, the “mice with dysplastic nodules or HCC” value ([2]; week 18, CDE/Prog prevention arm N=15, CDE/Reg 8 of 23) was “none and no dysplasia or HCC”, the “abnormalities in hepatic blood tests or weight” value ([3]; control diet with proglumide vs untreated drinking water) was “no evidence of abnormalities” and the body weight ([3]; control diet, proglumide water vs untreated water) was “did not weigh more”. For the same molecule, the liver histology ([3]; control diet, proglumide water vs untreated water, week 18) was “no evidence of NASH; also recorded: No differences”.

In the case of Vitamin E, the reversal of fibrosis [4] is given as “neither compound statistically reversed fibrosis”.
